Assay results from patent US8957049B2, “Inhibitors of fatty acid amide hydrolase” (Infinity Pharmaceuticals, Inc., priority 2008, dated 2015).
Like-named read-outs stand apart in the source and are kept apart here.

Target: T1, human FAAH (Homo sapiens, UniProt O00519)
T1 construct: host or cells: COS-7 cells, transient transfection (FuGENE 6); 13,000 g membrane fraction solubilised in 1% Triton X-100
T1 sequence (O00519 1-579): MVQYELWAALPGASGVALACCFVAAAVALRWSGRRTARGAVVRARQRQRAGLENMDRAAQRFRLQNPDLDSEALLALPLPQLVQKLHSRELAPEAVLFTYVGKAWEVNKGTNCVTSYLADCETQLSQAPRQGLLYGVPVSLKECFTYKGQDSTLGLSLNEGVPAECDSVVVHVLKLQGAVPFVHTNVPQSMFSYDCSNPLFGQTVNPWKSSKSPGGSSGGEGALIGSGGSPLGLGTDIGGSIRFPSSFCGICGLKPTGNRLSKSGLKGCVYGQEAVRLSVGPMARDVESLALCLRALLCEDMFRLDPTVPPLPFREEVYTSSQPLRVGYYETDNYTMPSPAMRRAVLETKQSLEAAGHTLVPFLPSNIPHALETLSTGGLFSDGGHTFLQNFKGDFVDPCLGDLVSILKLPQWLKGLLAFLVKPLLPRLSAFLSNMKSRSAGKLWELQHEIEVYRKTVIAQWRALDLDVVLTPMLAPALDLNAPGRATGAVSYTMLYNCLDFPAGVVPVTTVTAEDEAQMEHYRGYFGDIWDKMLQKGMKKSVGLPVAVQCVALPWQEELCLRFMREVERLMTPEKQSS
Experiment: Human FAAH biochemical inhibition assay (AMC arachidonoyl amide fluorescence)
Description: Exemplary compounds are set forth in the Examples provided below. Compounds were assayed as inhibitors of human FAAH using the method described in detail in Example 286.
The following assays may be used to determine the inhibition of FAAH by the compounds of the present invention: (1) a fluorescence-based assay for fatty acid amide hydrolase compatible with high-throughput screening as described in Manjunath et al., Analytical Biochemistry (2005) 343:143-151; and (2) a high-throughput screening for the discovery of inhibitors of fatty acid amide hydrolase using a microsome-based fluorescent assay. Wang et al., Biomolecular Screening (2006) 1-9.
COS-7 cells were split the day before, 1:5 into 150 mm×25 mm cell culture dishes (Corning Inc., Cat. No. 430599). Transient transfection took place at 30-40% confluency according to FuGENE 6 Transfection Reagent (Roche, Cat. No. 11814 443 001).
The FuGENE transfection 6 reagent (45 uL) was added to 1410 μL of media (DMEM, serum free without pen/strep) in a 15 mL conical tube and incubated at room temp for 5 minutes, followed by the addition of FAAH plasmid DNA (15 μg) (OriGene Cat. No. TC119221, Genbank Accession No. NM_001441.1, 0.67 ug/uL) and a further incubation of 15 minutes at room temperature. The resulting solution was added into one dish of 30-40% confluent COS-7 cells in a drop-wise manner. The COS-7 cell dish was subsequently incubated for 48 hours. The cells are then harvested.
Media was aspirated from the dishes and the cells rinsed with 10 mL PBS. The PBS was removed and 3 mL of PBS added to the dish. The dish was scraped to resuspend the cells, and the subsequent cell suspension collected into a 15 mL conical tube. The cells were pelleted by centrifugation at 1200 rpm for 5 minutes in a bench top centrifuge. PBS was removed and the cell pellet snap frozen in liquid nitrogen and stored at −80° C.
COS-7 Cells—FAAH Purification: • (1) Fractionation: Frozen cell pellets from transient transfections were thawed on ice and resuspended in 12.5 mM Hepes pH 8.0, 100 mM NaCl, 1 mM EDTA (10 mL/0.2 g cell pellet). The pellets were dounce homogenized and then sonicated to produce cell extract. The cell extract was subsequently centrifuged at 1000 g to remove cellular debris. The pellet was discarded and the supernatant centrifuged at 13,000 g for 20 minutes. The pellet contained membrane bound FAAH. The supernatant was discarded and the pellet resolubilized. • (2) Re-solubilization: The fraction of interest, (13,000 g, membrane fraction) was re-suspended in 2.3 mL re-suspension buffer (20 mM Hepes pH 7.8, 10% v/v Glycerol, 1 mM EDTA, 1% Triton X-100) and the sample incubated on ice for 1 hour and then centrifuged to remove any particulate matter. The supernatant containing solubilized human FAAH was aliquoted and snap frozen in liquid nitrogen and stored at −80° C. until use. • (3) Characterization: Protein Concentration determined by Bradford assay. • SDS gel and Western blot to confirm presence of FAAH • FAAH activity assay • Km determination—96-well assay • Linear dependence—96-well assay • Standard compound Ki determination—384-well assay
Rat FAAH biochemical assays were carried out in a 96 well flat bottom black non-treated polystyrene plates (Corning Costar Catalogue #3915). FAAH reaction buffer: 50 mM Hepes (pH 7.5), 1 mM EDTA, 0.2% Triton X-100. FAAH substrate—AMC Arachidonoyl Amide (Cayman Chemicals Company, Catalog #10005098). The reaction was read in an Envision microtiter plate reader [Excitation filter 355 nm (40 nm bandpass); Emmision filter 460 nm (25 nm bandpass)]. The raw fluorescence was plotted on the y axis and the inhibitor concentration on the x axis to give a dose response inhibition curve. The data was fitted to a single site competitive inhibition equation, fixing the Km for the rat and human enzyme to 12 μM and 9 μM respectively. […]

[1] = class given in each Example, read-out: Activity (Ki, inhibition of human FAAH)
[2] = Table A, read-out: Activity (Ki) of other boronic acids tested, Table A

SMILES	Ki [1] [nM]	Ki [2] [nM]
OB(O)c1ccc(-c2cnn(Cc3ccccc3)c2)cc1 [Compound 227]	≤ 10	–
CCCCC(C)c1nnc(-c2ccc(B(O)O)cc2)o1 (stereo not shown) [Compound 34]	≤ 10	–
OB(O)c1ccc(OCc2ccccc2)cc1CNCc1ccccc1 [Compound 111]	100 to 1000	–
OB(O)c1ccc(OCCc2ccccc2)cc1/C=C/CCc1ccccc1 [Compound 184]	100 to 1000	–
Cc1cc(B2OC(C)(C)C(C)(C)O2)cnc1N1CCN(C)CC1	–	> 1000
OB(O)c1ccc(-c2nnc(-c3cccc(C(F)(F)F)c3)s2)cc1 [Compound 48]	≤ 10	–
Cc1nc2cc(B(O)O)ccc2s1 [Compound 88]	100 to 1000	–
OB(O)c1ccc(-c2cn(Cc3ccc(C(F)(F)F)cc3)nn2)cc1 [Compound 127]	100 to 1000	–
OB(O)c1ccc2ccc(Oc3ccccc3)nc2c1 [Compound 188]	≤ 10	–
CN(C)c1cccc(Oc2ccc3cc(B(O)O)ccc3n2)c1 [Compound 194]	≤ 10	–
OB(O)c1ccc2nc(CCCC(F)(F)F)oc2c1 [Compound 246]	≤ 10	–
C=CCCCc1nnc(-c2ccc(B(O)O)cc2)o1 [Compound 78]	≤ 10	–
OB(O)c1ccc2nc(OCc3ccccc3)ccc2c1 [Compound 193]	≤ 10	–
COC(=O)/C=C/c1cc(OCCc2ccccc2)ccc1B(O)O [Compound 100]	≤ 10	–
CCOC(=O)COc1ccc(B(O)O)cc1	–	100 to 1000
NCCc1nnc(-c2ccc(B(O)O)cc2)o1 [Compound 84]	> 1000	–
CC(=O)Nc1ccc(B(O)O)cc1	–	> 1000
OB(O)c1ccc(-c2cc(-c3ccccc3)on2)cc1 [Compound 160]	≤ 10	–
OB(O)c1ccc2nc(Oc3ccc(Cl)cc3)ccc2c1 [Compound 201]	≤ 10	–
COCc1nnc(-c2ccc(B(O)O)cc2)o1 [Compound 75]	≤ 10	–
CC(C)(O)c1nnc(-c2ccc(B(O)O)cc2)o1 [Compound 73]	10 to 100	–
OB(O)c1ccc(Oc2ccc(F)nc2)cc1F [Compound 298]	≤ 10	–
OB(O)c1ccc(-c2nnc(Cc3ccccc3)o2)s1 [Compound 55]	10 to 100	–
CC(=O)N/N=C/c1cc(OCCc2ccccc2)ccc1B(O)O [Compound 120]	≤ 10	–
CCCc1nnc(-c2cc(OCCc3ccccc3)ccc2B(O)O)o1 [Compound 17]	≤ 10	–
CN(CCc1ccc(B(O)O)c(F)c1)S(=O)(=O)c1ccccc1 [Compound 312]	≤ 10	–
COCc1cc(OCCc2ccccc2)ccc1B(O)O [Compound 95]	10 to 100	–
OB(O)c1ccc(COc2cccc(B(O)O)c2)cc1 [Compound 326]	≤ 10	–
CC(C)c1cccc(-c2ccc(B(O)O)c(F)c2)c1 [Compound 289]	≤ 10	–

Next, values leading:

Ki [1] [nM]	Ki [2] [nM]	SMILES
10 to 100	–	Cn1cncc1-c1nnc(-c2cc(OCCc3ccccc3)ccc2B(O)O)o1 [Compound 268]
≤ 10	–	CCCCCc1nnc(-c2cc(B(O)O)cs2)o1 [Compound 27]
100 to 1000	–	O=C(CCc1ccc(B(O)O)cc1)NCc1ccccc1 [Compound 324]
100 to 1000	–	[O-]/[N+](=C\c1cc(OCc2ccccc2)ccc1B(O)O)Cc1ccccc1 [Compound 106]
≤ 10	–	N#Cc1cccc(Oc2ccc3cc(B(O)O)ccc3n2)c1 [Compound 198]
10 to 100	–	OB1ON=Cc2cc(OCCc3ccccc3)ccc21 [Compound 104]
100 to 1000	–	CN(Cc1ccccc1)C(=O)/C=C/c1ccccc1B(O)O [Compound 114]
≤ 10	–	OB(O)c1ccc(-c2nnc(CCC3CCCCC3)o2)cc1 [Compound 36]
≤ 10	–	CCCCCC1CC(c2ccc(B(O)O)cc2)=NO1 (stereo not shown) [Compound 161]
10 to 100	–	Cc1nc(-c2ccccc2)sc1-c1ccc(B(O)O)c(F)c1 [Compound 225]
10 to 100	–	OB(O)c1ccc2nc(OC3CCCCC3)ccc2c1 [Compound 192]
–	100 to 1000	OB(O)c1ccc(C(F)(F)F)nc1
> 1000	–	NCC(=O)N/N=C/c1cc(OCc2ccccc2)ccc1B(O)O [Compound 118]
≤ 10	–	CC(C)CCCc1nnc(-c2ccc(B(O)O)cc2)o1 [Compound 38]
≤ 10	–	OB(O)c1ccc(OCCc2ccccc2)cc1-c1nnc(-c2ccco2)o1 [Compound 18]
≤ 10	–	COc1cccc(-c2nnc(-c3ccc(B(O)O)cc3)o2)c1OC [Compound 44]
100 to 1000	–	CCCC1(c2ccccc2)CC(c2ccc(B(O)O)cc2)=NO1 (stereo not shown) [Compound 163]
≤ 10	–	Cn1ccc2c(-c3nnc(-c4ccc(B(O)O)cc4)o3)cccc21 [Compound 51]
–	100 to 1000	OB(O)c1ccc(OCCn2ccnc2)cc1
> 1000	–	OCc1cc(OCc2ccccc2)ccc1B(O)O [Compound 96]
≤ 10	–	CC(C)(C)c1nnc(-c2ccc(B(O)O)cc2)o1 [Compound 77]

Ki [1] [nM]	Ki [2] [nM]	SMILES
≤ 10	–	OB(O)c1ccc2cc(Oc3ccccn3)ccc2c1 [Compound 185]
≤ 10	–	OB(O)c1ccc2nc(CCc3ccccc3)oc2c1 [Compound 243]
10 to 100	–	CCOc1ccc2cc(B(O)O)ccc2n1 [Compound 203]
> 1000	–	OB1NN=Cc2cc(OCc3ccccc3)ccc21 [Compound 258]
10 to 100	–	CCCc1noc(-c2cc(OCCc3ccccc3)ccc2B(O)O)n1 [Compound 273]
≤ 10	–	OB(O)c1ccc([C@H]2OC[C@@H](c3ccccc3)O2)cc1 [Compound 182]
≤ 10	–	OB(O)c1ccc2nc(Oc3cccnc3)ccc2c1 [Compound 209]
> 1000	–	OB(O)c1cccc2cccc(COc3cccc(F)c3)c12 [Compound 151]
≤ 10	–	COc1ccccc1Oc1ccc2cc(B(O)O)ccc2n1 [Compound 200]
≤ 10	–	OB(O)c1ccc([C@H]2OC[C@H](c3ccccc3)CO2)cc1F [Compound 173]
100 to 1000	–	O=C(CCB(O)O)NCCc1ccccc1 [Compound 321]
–	100 to 1000	Cc1cc(B(O)O)cnc1N1CCOCC1
10 to 100	–	COc1ccc2cc(B(O)O)ccc2n1 [Compound 202]
≤ 10	–	OB(O)c1ccc(-c2nnc(-c3ccccc3)o2)cc1 [Compound 71]
≤ 10	–	CC(C)CCn1cc(-c2ccc(B(O)O)cc2)cn1 [Compound 222]
10 to 100	–	OB1ON=Cc2cc(OCc3ccccc3)ccc21 [Compound 105]
≤ 10	–	OB(O)c1ccc2c(cnn2Cc2ccccc2)c1 [Compound 316]
≤ 10	–	OB(O)c1ccc(-c2cnn(Cc3ccccc3)c2)cc1F [Compound 226]
100 to 1000	–	O=C(CCCC1CCN(Cc2ccc(B(O)O)cc2)CC1)c1ncco1 [Compound 329]
> 1000	–	CN1N=Cc2cc(OCCc3ccccc3)ccc2B1O [Compound 108]
